Assay results published in US20160100574A1, “Antimicrobial Compositions Comprising Glyceryl Ethers” (SYMRISE AG, priority 2013, published 2016).

What was measured:
Assay type in all cases: cell-based
Pseudomonas aeruginosa = assay: Minimum inhibitory concentration according to DIN 58940, Pseudomonas aeruginosa; conditions: Pseudomonas aeruginosa, single antimicrobial agents
Text: (§1) In order to calculate the Synergy Index SI with MIC values, the Kull equation is used as follows:
(§2) SI=(MICmixture×PA)/MICA+(MICmixture×PB)/MICB (II)
(§3) where SI is the Synergy Index according to Kull^1), 2) MICA is the MIC value for substance A MICB is the MIC value for substance B MICmixture is the MIC value for the mixture of substances A and B PA is the proportion of the substance A in the mixture PB is the proportion of the substance B in the mixture. b) Mixtures containing 3 components
(§4) SI=(MICmixture×PA)/MICA+(MICmixture×PB)/MICB+(MICmixture×PC)/MICC
(§5) where SI is the Synergy Index according to Kull^1), 2) MICA is the MIC value for substance A MICB is the MIC value for substance B MICC is the MIC value for substance C MICmixture is the MIC value for the mixture of substances […] PA is the proportion of the substance A in the mixture PB is the proportion of the substance B in the mixture. PC is the proportion of the substance C in the mixture.

Escherichia coli = assay: Minimum inhibitory concentration according to DIN 58940, Escherichia coli; conditions: Escherichia coli, single antimicrobial agents, read-out: MIC values E. coli
Text: as §1, §2, §3, §4, §5

Candida albicans = assay: Minimum inhibitory concentration according to DIN 58940, Candida albicans; conditions: Candida albicans, single antimicrobial agents
Text: as §1, §2, §3, §4, §5

Aspergillus brasiliensis = assay: Minimum inhibitory concentration according to DIN 58940, Aspergillus brasiliensis; conditions: Aspergillus brasiliensis, single antimicrobial agents
Text: as §1, §2, §3, §4, §5

Staphylococcus aureus = assay: Minimum inhibitory concentration according to DIN 58940, Staphylococcus aureus; conditions: Staphylococcus aureus, single antimicrobial agents
Text: as §1, §2, §3, §4, §5

A. brasiliensis = assay: Challenge test / synergy (Kull equation), A. brasiliensis; conditions: for colony counts Day 0: Day 0, 1% b.w. active in aqueous emulsion of Glyceryl stearyl citrate (Dracorin CE); for colony counts Day 2: Day 2, 1% b.w. active in aqueous emulsion of Glyceryl stearyl citrate (Dracorin CE); for colony counts Day 14: Day 14, 1% b.w. active in aqueous emulsion of Glyceryl stearyl citrate (Dracorin CE); for colony counts Day 28: Day 28, 1% b.w. active in aqueous emulsion of Glyceryl stearyl citrate (Dracorin CE)
Procedure: (§6) 1% b.w. of heptylglycerin, benzylglycerin and phenylpropylglycerin, respectively was added to an aqueous emulsion of Glyceryl stearyl citrate (Dracorin CE). The formulations were tested in standard challenge tests against various micro-organisms.
To calculate the synergism between compounds of formula (I) and other antimicrobial actives, the Kull equation^1 2 was used
SI=(Cmixture×PA)/CA+(Cmixture×PB)/CB (I)
where SI is the Synergy Index according to Kull^1), 2) CA is the cell count for substance A CB is the cell count for substance B Cmixture is the cell count for the mixture of substances A and B PA is the proportion of the substance A in the mixture PB is the proportion of the substance B in the mixture. ^1 Kull, F. C., Eismann, P. C., Sylvestrowicz, H. D., and R. L. Mayer (1961). Mixtures of Quaternary Ammonium Compounds and Long-chain Fatty Acids as Antifungal Agents. Applied Microbiology 9, 538-541.^2 Steinberg, D.C. (2000). Measuring Synergy. Cosmetics & Toiletries 115 (11), 59-62.
Colony counts of <100 were arbitrarily set to 100, in order to allow for synergy calculations with the above equation. The abbreviation “n.a.” means not applicable.

C. albicans = assay: Challenge test of preserved emulsion, C. albicans; conditions: for colony counts Day 14: Day 14, 1% b.w. active in aqueous emulsion of Glyceryl stearyl citrate (Dracorin CE); for colony counts Day 28: Day 28, 1% b.w. active in aqueous emulsion of Glyceryl stearyl citrate (Dracorin CE)
Procedure: as §6, with “micro-organisms. The results are shown in Table 1 and indicate the high activity of the actives against yeast and bacteria, but not against mould.” for “micro-organisms.”

S. aureus = assay: Challenge test of preserved emulsion, S. aureus; conditions: for colony counts Day 0: Day 0, 1% b.w. active in aqueous emulsion of Glyceryl stearyl citrate (Dracorin CE); for colony counts Day 2: Day 2, 1% b.w. active in aqueous emulsion of Glyceryl stearyl citrate (Dracorin CE); for colony counts Day 7: Day 7, 1% b.w. active in aqueous emulsion of Glyceryl stearyl citrate (Dracorin CE); for colony counts Day 14: Day 14, 1% b.w. active in aqueous emulsion of Glyceryl stearyl citrate (Dracorin CE); for colony counts Day 28: Day 28, 1% b.w. active in aqueous emulsion of Glyceryl stearyl citrate (Dracorin CE)
Procedure: as §6, with “micro-organisms. The results are shown in Table 1 and indicate the high activity of the actives against yeast and bacteria, but not against mould.” for “micro-organisms.”

E. coli = assay: Challenge test of preserved emulsion, E. coli; conditions: for colony counts Day 0: Day 0, 1% b.w. active in aqueous emulsion of Glyceryl stearyl citrate (Dracorin CE); for colony counts Day 2: Day 2, 1% b.w. active in aqueous emulsion of Glyceryl stearyl citrate (Dracorin CE); for colony counts Day 7: Day 7, 1% b.w. active in aqueous emulsion of Glyceryl stearyl citrate (Dracorin CE); for colony counts Day 14: Day 14, 1% b.w. active in aqueous emulsion of Glyceryl stearyl citrate (Dracorin CE); for colony counts Day 28: Day 28, 1% b.w. active in aqueous emulsion of Glyceryl stearyl citrate (Dracorin CE)
Procedure: as §6, with “micro-organisms. The results are shown in Table 1 and indicate the high activity of the actives against yeast and bacteria, but not against mould.” for “micro-organisms.”

P. aeruginosa = assay: Challenge test of preserved emulsion, P. aeruginosa; conditions: for colony counts Day 0: Day 0, 1% b.w. active in aqueous emulsion of Glyceryl stearyl citrate (Dracorin CE); for colony counts Day 2: Day 2, 1% b.w. active in aqueous emulsion of Glyceryl stearyl citrate (Dracorin CE); for colony counts Day 7: Day 7, 1% b.w. active in aqueous emulsion of Glyceryl stearyl citrate (Dracorin CE); for colony counts Day 14: Day 14, 1% b.w. active in aqueous emulsion of Glyceryl stearyl citrate (Dracorin CE); for colony counts Day 28: Day 28, 1% b.w. active in aqueous emulsion of Glyceryl stearyl citrate (Dracorin CE)
Procedure: as §6, with “micro-organisms. The results are shown in Table 1 and indicate the high activity of the actives against yeast and bacteria, but not against mould.” for “micro-organisms.”

CCCCCCOCC(O)CO (centres unmarked) [Hexylglycerin]
MIC (Pseudomonas aeruginosa): 6000 µg/mL | MIC (Escherichia coli): 4000 µg/mL | MIC (Candida albicans): 6000 µg/mL | MIC (Aspergillus brasiliensis): 4000 µg/mL | MIC (Staphylococcus aureus): 6000 µg/mL

OCC(O)COCc1ccccc1 (centres unmarked) [Benzylglycerin]
colony counts Day 0 (A. brasiliensis): 360.000 cfu/g formulation | colony counts Day 2 (A. brasiliensis): 490.000 cfu/g formulation | colony counts Day 14 (A. brasiliensis): 300.000 cfu/g formulation | colony counts Day 28 (A. brasiliensis): 30.000 cfu/g formulation | colony counts Day 14 (C. albicans): 0 cfu/g formulation | colony counts Day 28 (C. albicans): 0 cfu/g formulation | MIC (Pseudomonas aeruginosa): 20000 µg/mL | colony counts Day 0 (S. aureus): 240.000 cfu/g formulation | colony counts Day 2 (S. aureus): 700 cfu/g formulation | colony counts Day 7 (S. aureus): <100 cfu/g formulation | colony counts Day 14 (S. aureus): 0 cfu/g formulation | colony counts Day 28 (S. aureus): 0 cfu/g formulation | MIC (Escherichia coli): 10000 µg/mL | colony counts Day 0 (E. coli): 250.000 cfu/g formulation | colony counts Day 2 (E. coli): 0 cfu/g formulation | colony counts Day 7 (E. coli): 0 cfu/g formulation | colony counts Day 14 (E. coli): 0 cfu/g formulation | colony counts Day 28 (E. coli): 0 cfu/g formulation | MIC (Candida albicans): 20000 µg/mL | colony counts Day 0 (P. aeruginosa): 210.000 cfu/g formulation | colony counts Day 2 (P. aeruginosa): 0 cfu/g formulation | colony counts Day 7 (P. aeruginosa): 0 cfu/g formulation | colony counts Day 14 (P. aeruginosa): 0 cfu/g formulation | colony counts Day 28 (P. aeruginosa): 0 cfu/g formulation | MIC (Aspergillus brasiliensis): 20000 µg/mL | MIC (Staphylococcus aureus): 20000 µg/mL

CCCCCCCOCC(O)CO (centres unmarked) [Heptylglycerin]
colony counts Day 0 (A. brasiliensis): 220.000 cfu/g formulation | colony counts Day 2 (A. brasiliensis): 320.000 cfu/g formulation | colony counts Day 14 (A. brasiliensis): 300.000 cfu/g formulation | colony counts Day 28 (A. brasiliensis): 170.000 cfu/g formulation | Colony counts day 0 (A. brasiliensis; Table 3, day 0, 1.0% total active): 220.000 cfu/g formulation | Relative colony counts day 0 (A. brasiliensis; Table 3, day 0, relative to day 0, 1.0% total active): 1.0000 | Colony counts day 2 (A. brasiliensis; Table 3, day 2, 1.0% total active): 320.000 cfu/g formulation | Relative colony counts day 2 (A. brasiliensis; Table 3, day 2, relative to day 0, 1.0% total active): 1.4545 | Colony counts day 7 (A. brasiliensis; Table 3, day 7, 1.0% total active): 340.000 cfu/g formulation | Relative colony counts day 7 (A. brasiliensis; Table 3, day 7, relative to day 0, 1.0% total active): 1.5455 | Colony counts day 14 (A. brasiliensis; Table 3, day 14, 1.0% total active): 300.000 cfu/g formulation | Relative colony counts day 14 (A. brasiliensis; Table 3, day 14, relative to day 0, 1.0% total active): 1.3636 | Colony counts day 28 (A. brasiliensis; Table 3, day 28, 1.0% total active): 170.000 cfu/g formulation | Relative colony counts day 28 (A. brasiliensis; Table 3, day 28, relative to day 0, <100 set to 100, 1.0% total active): 0.7727 | colony counts Day 2 (C. albicans; Day 2, 1% b.w. active in aqueous emulsion of Glyceryl stearyl citrate (Dracorin CE)): <100 cfu/g formulation | colony counts Day 7 (C. albicans; Day 7, 1% b.w. active in aqueous emulsion of Glyceryl stearyl citrate (Dracorin CE)): 0 cfu/g formulation | colony counts Day 14 (C. albicans): 0 cfu/g formulation | colony counts Day 28 (C. albicans): 0 cfu/g formulation | MIC (Pseudomonas aeruginosa): 5000 µg/mL | colony counts Day 0 (S. aureus): 230.000 cfu/g formulation | colony counts Day 2 (S. aureus): 0 cfu/g formulation | colony counts Day 7 (S. aureus): 0 cfu/g formulation | colony counts Day 14 (S. aureus): 0 cfu/g formulation | colony counts Day 28 (S. aureus): 0 cfu/g formulation | MIC (Escherichia coli): 2000 µg/mL | colony counts Day 0 (E. coli): 210.000 cfu/g formulation | colony counts Day 2 (E. coli): 0 cfu/g formulation | colony counts Day 7 (E. coli): 0 cfu/g formulation | colony counts Day 14 (E. coli): 0 cfu/g formulation | colony counts Day 28 (E. coli): 0 cfu/g formulation | MIC (Candida albicans): 2000 µg/mL | colony counts Day 0 (P. aeruginosa): 250.000 cfu/g formulation | colony counts Day 2 (P. aeruginosa): 0 cfu/g formulation | colony counts Day 7 (P. aeruginosa): 0 cfu/g formulation | colony counts Day 14 (P. aeruginosa): 0 cfu/g formulation | colony counts Day 28 (P. aeruginosa): 0 cfu/g formulation | MIC (Aspergillus brasiliensis): 1000 µg/mL | MIC (Staphylococcus aureus): 2500 µg/mL

CCCCCCCCOCC(O)CO (centres unmarked) [Octylglycerin]
MIC (Pseudomonas aeruginosa): > 2000 µg/mL | MIC (Escherichia coli): 1000 µg/mL | MIC (Candida albicans): 1000 µg/mL | MIC (Aspergillus brasiliensis): 500 µg/mL | MIC (Staphylococcus aureus): 1000 µg/mL
